“And” between values parts separate entries of the source, which are not always exact repeats. Identical values can stand only once.
Legend:
Type in all cases: functional
Rattus norvegicus [1] = test: Weight loss of rat over the 6-h experimental period when a dose of 5 mg/kg (11.6 administered
Rattus norvegicus [2] = test: Percent reduction was determined by using the ratio of mean of treated animal to that of control animal at a dose of 25 mg/kg
Rattus norvegicus [3] = test: Stool output of rat over the 6-h collection period when a dose of 25 mg/kg (57.8 administered
Rattus norvegicus [4] = test: Stool output of rat over the 6-h collection period when a dose of 1 mg/kg (2.3 administered
Rattus norvegicus [5] = test: Stool output of rat over the 6-h collection period when a dose of 5 mg/kg (11.6 administered
Rattus norvegicus [6] = test: Weight loss of rat over the 6-h experimental period when a dose of 25 mg/kg (57.8 administered
Rattus norvegicus [7] = test: Percent reduction was determined by using the ratio of mean of treated animal to that of control animal at a dose of 1 mg/kg
Rattus norvegicus [8] = test: Weight loss of rat over the 6-h experimental period when a dose of 1 mg/kg (2.3 uMl) was administered
Rattus norvegicus [9] = test: Stool output of rat over the 6-h collection period when a dose of 0 mg/kg (0 administered
Rattus norvegicus [10] = test: Percent reduction was determined by using the ratio of mean of treated animal to that of control animal at a dose of 5 mg/kg
Rattus norvegicus [11] = test: Weight loss of rat over the 6-h experimental period when a dose of 0 mg/kg (0 administered
Rattus norvegicus [12] = test: Weight loss of rat over the 6-h experimental period when a dose of 47 mg/kg (116.25 uM) was given orally; conditions: route oral
Rattus norvegicus [13] = test: Weight loss of rat over the 6-h experimental period when a dose of 23.5 mg/kg (58.13 uM) was given orally; conditions: route oral
Rattus norvegicus [14] = test: Stool output of rat over the 6-h collection period when a dose of 94 mg/kg (232.5 uM) was given orally; conditions: route oral
Rattus norvegicus [15] = test: Weight loss of rat over the 6-h experimental period when a dose of 94 mg/kg (232.5 uM) was given orally; conditions: route oral
Rattus norvegicus [16] = test: Stool output of rat over the 6-h collection period when a dose of 47 mg/kg (116.25 uM) was given orally; conditions: route oral
Rattus norvegicus [17] = test: Weight loss of rat over the 6-h experimental period when a dose of 0 mg/kg (0 uM) was given orally; conditions: route oral
Rattus norvegicus [18] = test: Stool output of rat over the 6-h collection period when a dose of 23.5 mg/kg (58.13 uM) was given orally; conditions: route oral
Rattus norvegicus [19] = test: Stool output of rat over the 6-h collection period when a dose of 0 mg/kg (0 uM) was given orally; conditions: route oral
Rattus norvegicus [20] = test: Weight loss of rat over the 6-h experimental period when a dose of 5.9 mg/kg (11.6 administered
Rattus norvegicus [21] = test: Stool output of rat over the 6-h collection period when a dose of 5.9 mg/kg (11.6 administered
Rattus norvegicus [22] = test: Stool output of rat over the 6-h collection period when a dose of 15 mg/kg (47.6 administered
Rattus norvegicus [23] = test: Weight loss of rat over the 6-h experimental period when a dose of 15 mg/kg (47.6 administered
Rattus norvegicus [24] = test: Stool output of rat over the 6-h collection period when a dose of 4.6 mg/kg (11.6 administered
Rattus norvegicus [25] = test: Weight loss of rat over the 6-h experimental period when a dose of 4.6 mg/kg (11.6 administered
Rattus norvegicus [26] = test: Weight loss of rat over the 6-h experimental period when a dose of 10.7 mg/kg (23.2 administered
Rattus norvegicus [27] = test: Percent reduction was determined by using the ratio of mean of treated animal to that of control animal at a dose of 10.7 mg/kg
Rattus norvegicus [28] = test: Weight loss of rat over the 6-h experimental period when a dose of 5.3 mg/kg (11.6 administered
Rattus norvegicus [29] = test: Stool output of rat over the 6-h collection period when a dose of 5.3 mg/kg (11.6 administered
Rattus norvegicus [30] = test: Stool output of rat over the 6-h collection period when a dose of 10.7 mg/kg (23.2 administered
Rattus norvegicus [31] = test: Percent reduction was determined by using the ratio of mean of treated animal to that of control animal at a dose of 5.3 mg/kg
Rattus norvegicus [32] = test: Weight loss of rat over the 6-h experimental period when a dose of 1.22 mg/kg (2.3 administered
Rattus norvegicus [33] = test: Weight loss of rat over the 6-h experimental period when a dose of 6.11 mg/kg (11.6 administered
Rattus norvegicus [34] = test: Stool output of rat over the 6-h collection period when a dose of 6.11 mg/kg (11.6 administered
Rattus norvegicus [35] = test: Stool output of rat over the 6-h collection period when a dose of 1.22 mg/kg (2.3 administered
Rattus norvegicus [36] = test: Stool output of rat over the 6-h collection period when a dose of 30.4 mg/kg (57.8 administered
Rattus norvegicus [37] = test: Weight loss of rat over the 6-h experimental period when a dose of 30.4 mg/kg (57.8 administered
Rattus norvegicus [38] = test: Weight loss of rat over the 6-h experimental period when a dose of 2.5 mg/kg (5.8 administered
Rattus norvegicus [39] = test: Weight loss of rat over the 6-h experimental period when a dose of 12.5 mg/kg (28.9 uM) was given orally; conditions: route oral
Rattus norvegicus [40] = test: Percent reduction was determined by using the ratio of mean of treated animal to that of control animal at a dose of 12.5 mg/kg
[41] = The acute toxicity was determined in female CD1 mice after (ip) administration; conditions: Mus musculus
Rattus norvegicus [42] = test: Percent reduction was determined by using the ratio of mean of treated animal to that of control animal at a dose of 2.5 mg/kg
Rattus norvegicus [43] = test: Stool output of rat over the 6-h collection period when a dose of 25 mg/kg (57.6 uM) was given orally; conditions: route oral
Rattus norvegicus [44] = test: Percent reduction was determined by using the ratio of mean of treated animal to that of control animal at a dose of 50 mg/kg
Rattus norvegicus [45] = test: Stool output of rat over the 6-h collection period when a dose of 12.5 mg/kg (28.9 uM) was given orally; conditions: route oral
Rattus norvegicus [46] = test: Weight loss of rat over the 6-h experimental period when a dose of 1 mg/kg (2.3 administered
Rattus norvegicus [47] = test: Stool output of rat over the 6-h collection period when a dose of 50 mg/kg (115.6 uM) was given orally; conditions: route oral
Rattus norvegicus [48] = test: Weight loss of rat over the 6-h experimental period when a dose of 25 mg/kg (57.6 uM) was given orally; conditions: route oral
Rattus norvegicus [49] = test: Weight loss of rat over the 6-h experimental period when a dose of 50 mg/kg (115.6 uM) was given orally; conditions: route oral
Rattus norvegicus [50] = test: Stool output of rat over the 6-h collection period when a dose of 2.5 mg/kg (5.8 administered
Rattus norvegicus [51] = test: Weight loss of rat over the 6-h experimental period when a dose of 2.7 mg/kg (5.8 administered
Rattus norvegicus [52] = test: Stool output of rat over the 6-h collection period when a dose of 1.1 mg/kg (2.3 administered
Rattus norvegicus [53] = test: Stool output of rat over the 6-h collection period when a dose of 2.7 mg/kg (5.8 administered
Rattus norvegicus [54] = test: Weight loss of rat over the 6-h experimental period when a dose of 1.1 mg/kg (2.3 administered

## CCCNCCCNCCCCNCCCNCCC
Rattus norvegicus [1]
  Weight loss: <5.7 g
Rattus norvegicus [2]
  Reduction: 69% and 100%
Rattus norvegicus [3]
  Stool output: <0 g (350g of rat weight)-1
Rattus norvegicus [4]
  Stool output: >3.8 g (350g of rat weight)-1
Rattus norvegicus [5]
  Stool output: <2.7 g (350g of rat weight)-1
Rattus norvegicus [6]
  Weight loss: <4 g
Rattus norvegicus [7]
  Reduction: 31% and 37%
Rattus norvegicus [8]
  Weight loss: <9.1 g
Rattus norvegicus [9]
  Stool output: 6 g (350g of rat weight)-1
Rattus norvegicus [10]
  Reduction: 56% and 55%
Rattus norvegicus [11]
  Weight loss: 13.1 g

## FC(F)(F)CNCCCNCCCCNCCCNCC(F)(F)F
Rattus norvegicus [12]
  Weight loss: <3.8 g
Rattus norvegicus [13]
  Weight loss: <6.2 g
Rattus norvegicus [14]
  Stool output: <0 g (350g of rat weight)-1
Rattus norvegicus [15]
  Weight loss: <2.8 g
Rattus norvegicus [16]
  Stool output: <0.6 g (350g of rat weight)-1
Rattus norvegicus [17]
  Weight loss: 15.1 g
Rattus norvegicus [18]
  Stool output: <1.9 g (350g of rat weight)-1
Rattus norvegicus [9]
  Stool output: 7.2 g (350g of rat weight)-1
Rattus norvegicus [19]
  Stool output: 7.2 g (350g of rat weight)-1
Rattus norvegicus [20]
  Weight loss: >17.2 g
Rattus norvegicus [11]
  Weight loss: 18.2 g
Rattus norvegicus [21]
  Stool output: >7.5 g (350g of rat weight)-1

## c1cc(NCCCCNc2ccncc2)ccn1
Rattus norvegicus [9]
  Stool output: 5.6 g (350g of rat weight)-1
Rattus norvegicus [22]
  Stool output: >6.9 g (350g of rat weight)-1
Rattus norvegicus [11]
  Weight loss: 13.3 g
Rattus norvegicus [23]
  Weight loss: >14.4 g

## C(CCNC1CCNCC1)CNC1CCNCC1
Rattus norvegicus [24]
  Stool output: >4.7 g (350g of rat weight)-1
Rattus norvegicus [9]
  Stool output: 4.2 g (350g of rat weight)-1
Rattus norvegicus [25]
  Weight loss: >9.5 g
Rattus norvegicus [11]
  Weight loss: 10 g

## CC(C)CNCCCNCCCCNCCCNCC(C)C
Rattus norvegicus [26]
  Weight loss: <5 g
Rattus norvegicus [27]
  Reduction: 78%
Rattus norvegicus [28]
  Weight loss: <11.1 g
Rattus norvegicus [9]
  Stool output: 7.2 g (350g of rat weight)-1
Rattus norvegicus [29]
  Stool output: >5.1 g (350g of rat weight)-1
Rattus norvegicus [30]
  Stool output: >1.6 g (350g of rat weight)-1
Rattus norvegicus [11]
  Weight loss: 18.2 g
Rattus norvegicus [31]
  Reduction: 39%

## c1ccc(CNCCCNCCCCNCCCNCc2ccccc2)cc1
Rattus norvegicus [32]
  Weight loss: >13.5 g
Rattus norvegicus [33]
  Weight loss: >13.1 g
Rattus norvegicus [9]
  Stool output: 6.2 g (350g of rat weight)-1
Rattus norvegicus [34]
  Stool output: >6.3 g (350g of rat weight)-1
Rattus norvegicus [35]
  Stool output: >6.4 g (350g of rat weight)-1
Rattus norvegicus [11]
  Weight loss: 13.3 g
Rattus norvegicus [36]
  Stool output: >5 g (350g of rat weight)-1
Rattus norvegicus [37]
  Weight loss: >10.4 g

## CC(C)NCCCNCCCCNCCCNC(C)C
Rattus norvegicus [38]
  Weight loss: <4.2 g
Rattus norvegicus [39]
  Weight loss: <8.7 g
Rattus norvegicus [1]
  Weight loss: <4.4 g
Rattus norvegicus [2]
  Reduction: 79% and 100%
Rattus norvegicus [40]
  Reduction: 49% and 50%
[41]
  LD50: 125 mg/kg
Rattus norvegicus [17]
  Weight loss: 17.2 g
Rattus norvegicus [4]
  Stool output: <2.9 g (350g of rat weight)-1
Rattus norvegicus [5]
  Stool output: <0.9 g (350g of rat weight)-1
Rattus norvegicus [42]
  Reduction: 64% and 100%
Rattus norvegicus [43]
  Stool output: <0 g (350g of rat weight)-1
Rattus norvegicus [44]
  Reduction: 81% and 100%
Rattus norvegicus [45]
  Stool output: <3.6 g (350g of rat weight)-1
Rattus norvegicus [46]
  Weight loss: <6.9 g
Rattus norvegicus [7]
  Reduction: 42% and 57%
Rattus norvegicus [9]
  Stool output: 6.8 g (350g of rat weight)-1
Rattus norvegicus [19]
  Stool output: 7.2 g (350g of rat weight)-1
Rattus norvegicus [47]
  Stool output: <0 g (350g of rat weight)-1
Rattus norvegicus [10]
  Reduction: 63% and 87%
Rattus norvegicus [11]
  Weight loss: 11.8 g
Rattus norvegicus [48]
  Weight loss: <3.6 g
Rattus norvegicus [49]
  Weight loss: <3.2 g
Rattus norvegicus [50]
  Stool output: <0 g (350g of rat weight)-1

## CCCCNCCCNCCCCNCCCNCCCC
Rattus norvegicus [51]
  Weight loss: >11.2 g
Rattus norvegicus [52]
  Stool output: >3.5 g (350g of rat weight)-1
Rattus norvegicus [28]
  Weight loss: >12 g
Rattus norvegicus [9]
  Stool output: 4.6 g (350g of rat weight)-1
Rattus norvegicus [29]
  Stool output: >5.5 g (350g of rat weight)-1
Rattus norvegicus [53]
  Stool output: >4.2 g (350g of rat weight)-1
Rattus norvegicus [11]
  Weight loss: 13.6 g
Rattus norvegicus [54]
  Weight loss: >10.2 g

Source: ChEMBL document CHEMBL1134446, “Polyamine analogue antidiarrheals: a structure-activity study” (J Med Chem, 2001)
